# From patent publication US8048896B2, “Methods for inhibiting and breaking AGE complex formation” (Cell Viable Corporation, priority 2005, dated 2011)
# Columns and labels:
# [1] = test system: AGE crosslinks in tail tendon collagen of old diabetic rats; assay: Fluorescence of collagen treated with AGE-breakers after papain digestion; assay type: biochemical, rat; settings: FIG. 4; particularly at 1.0 and 10 mM concentrations
# Method: (§1) The effects of these compounds on AGE crosslinks that form in vivo in tail tendon collagen of old diabetic rats were determined. Non-diabetic rats served as controls. P values were calculated using unpaired Student's t-test. The extent of AGE crosslinking of tail tendon collagen formed in vivo was assessed by acid insolubility (FIG. 2, * P<0.05 vs. non-diabetic control; ** P<0.05 vs. diabetic control) and fluorescence measurements of collagen treated with AGE-breakers after pepsin (FIG. 3; * P<0.05 vs. diabetic control) or papain digestion (FIG. 4; * P<0.05 vs. non-diabetic control; ** P<0.05 vs. diabetic control). In each of FIGS. 2-4, panel A is LR-20, panel B is LR-23, panel C is LR-99 and panel D is LR-102.
# [2] = test system: AGE crosslinks in tail tendon collagen of old diabetic rats; assay: Acid solubility of tail tendon collagen treated with AGE-breakers; assay type: biochemical, rat; settings: FIG. 2; particularly at 1.0 and 10 mM concentrations
# Method: as §1
# [3] = test system: AGE crosslinks in tail tendon collagen of old diabetic rats; assay: Fluorescence of collagen treated with AGE-breakers after pepsin digestion; assay type: biochemical, rat; settings: FIG. 3; particularly at 1.0 and 10 mM concentrations
# Method: as §1
# [4] = test system: AGE-derived protein crosslinks; settings: in vitro and in vivo; cited from earlier work
# [5] = molecular target: AGE formed on glycated bovine serum albumin (Bos taurus, UniProt P02769); assay: AGE-breaking ELISA on ribose-glycated bovine serum albumin; assay type: biochemical; settings: FIG. 1; various concentrations, 48 hr at 37° C.; ELISA with polyclonal anti-AGE-RNAse antibodies
# AGE formed on glycated bovine serum albumin, sequence (P02769 25-607): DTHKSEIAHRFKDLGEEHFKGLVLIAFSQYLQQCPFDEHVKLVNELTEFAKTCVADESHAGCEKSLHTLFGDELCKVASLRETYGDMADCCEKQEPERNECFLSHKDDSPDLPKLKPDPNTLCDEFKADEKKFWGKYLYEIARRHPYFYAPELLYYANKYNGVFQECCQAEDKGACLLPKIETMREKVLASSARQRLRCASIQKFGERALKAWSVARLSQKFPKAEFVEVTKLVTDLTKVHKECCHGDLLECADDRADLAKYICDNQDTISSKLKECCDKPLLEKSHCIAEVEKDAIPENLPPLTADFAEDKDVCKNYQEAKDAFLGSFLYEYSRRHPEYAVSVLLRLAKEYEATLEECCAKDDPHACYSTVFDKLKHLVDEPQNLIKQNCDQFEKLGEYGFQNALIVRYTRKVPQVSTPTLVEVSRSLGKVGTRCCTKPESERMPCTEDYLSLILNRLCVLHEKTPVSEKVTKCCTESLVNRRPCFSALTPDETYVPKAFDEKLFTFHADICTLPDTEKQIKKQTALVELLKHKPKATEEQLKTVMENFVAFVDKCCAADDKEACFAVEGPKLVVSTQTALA
# Method: Specifically, bovine serum albumin (10 mg/mL) was incubated with 0.5 M ribose in 0.4 M phosphate buffer, pH 7.5, containing 0.02% sodium azide for 24 hr at 37° C., followed by extensive dialysis for 24 hr at 4° C. to remove excess and reversibly bound ribose. AGE formation was then initiated by incubating 0.1 mg/mL (or 1:100 dilution in phosphate buffer) of the glycated protein at 37° C. Then the AGE formed were treated with various concentrations for the compounds for 48 hr at 37° C. Aliquots from each sample were taken and diluted with 0.1 M sodium carbonate buffer to 50 μg/mL. Then 50 μl of the diluted sample was added to wells of a 96-well polystyrene plate (1.0 μg/well) and incubated overnight at room temperature. The plates were washed thrice with PBS-0.05% Tween and blocked for 1 hr with Superblock blocking buffer. The amount of AGE in each treatment was then quantified by ELISA using polyclonal anti-AGE-RNAse antibodies. Percent AGE-breaking was calculated as: (100*(mean OD wells of control-mean OD wells with compound/mean OD wells control).
SMILES,fluorescence associated with AGE crosslinks after papain digestion [1],collagen solubility in weak acetic acid (acid insolubility) [2],fluorescence associated with AGE crosslinks after pepsin digestion [3],cleavage of AGE-derived protein crosslinks [4],Percent AGE-breaking [5]
"CC(C)(Oc1ccc(NC(=O)c2ccc(Cl)cc2)cc1)C(=O)N[C@@H](CSSC[C@H](NC(=O)C(C)(C)Oc1ccc(NC(=O)c2ccc(Cl)cc2)cc1)C(=O)O)C(=O)O [LR-20, L-bis-[4-(4-chlorobenzamidophenoxyisobutyryl)cystine]]",reduction of fluorescence,increased collagen solubility,reduction of fluorescence,,
"CC(C)(Oc1ccc(NC(=O)Nc2cc(Cl)cc(Cl)c2)cc1)C(=O)NC1(C(=O)O)CCCCC1 [LR-23, 4-(3,5-dichlorophenylureido)phenoxyisobutyryl-1-amidocyclohexane-1-carboxylic acid]",reduction of fluorescence,increased collagen solubility,reduction of fluorescence,,
"CC(C)(Oc1ccc(NC(=O)Nc2cc(Cl)cc(Cl)c2)cc1)C(=O)Nc1ccc(C(=O)O)cc1 [LR-99, 4-(3,5-dichlorophenylureidophenoxyisobutyryl)-4 amino benzoic acid]",reduction of fluorescence,increased collagen solubility,reduction of fluorescence,,
"CC(C)(Oc1ccc(N=Cc2ccc(C=Nc3ccc(OC(C)(C)C(=O)O)cc3)cc2)cc1)C(=O)O [LR-102, 1,4-benzene-bis-(4-methyleneaminophenoxyisobutyric acid)]",reduction of fluorescence,increased collagen solubility,reduction of fluorescence,,
"O=C(C[n+]1ccsc1)c1ccccc1.[Br-] [N-phenacylthiazolium bromide (PTB), N-phenacylthiazolium bromide]",,,,selectively cleaves AGE-derived protein crosslinks in vitro and in vivo,
Cc1ncc(CO)c(CN)c1O [pyridoxamine],,,,,concentration dependent AGE-breaking properties
